Measured values taken from article PMC9057582, “HIF inhibitor 32-134D eradicates murine hepatocellular carcinoma in combination with anti-PD1 therapy” (The Journal of Clinical Investigation, 2022).

Key:
[1] = Mouse pharmacokinetics (plasma, LC-MS/MS); type: in vivo, C57BL/6J mice; settings: male, C57BL/6J, ip, single intraperitoneal injection of 40 mg/kg
Description: We employed liquid chromatography and tandem mass spectrometry (LC-MS/MS) to quantify the plasma concentration of 32-134D over 24 hours following a single intraperitoneal injection of 40 mg/kg (Figure 9). The maximum plasma concentration (Cmax) of 20 μM occurred at 4 hours with a biexponential decline. […] Further studies are required to determine whether steady-state levels are achieved with daily administration.
Figure 9 Concentration-time profiles of 32-134D in mice (n = 3 per time point) treated with a single dose of 32-134D. Plasma was obtained over 24 hours, with 32-134D concentrations determined by LC-MS/MS. […] Data points and error bars represent mean and SD of 3 replicates, respectively.
Male C57BL/6J mice were administered 32-134D at 40 mg/kg as a single intraperitoneal injection. Mice (n = 3 per time point) were euthanized at 0.5, 1, 2, 4, 8, 16, and 24 hours after injection. Compound 32-134D was quantified in plasma by LC-MS/MS (see Supplemental Methods). Pharmacokinetic parameters were calculated from mean concentration-time data using noncompartmental methods in Phoenix WinNonlin version 8.3 (Certara). The Cmax and time to Cmax (tmax) were the observed values. The AUClast was calculated using the log-linear trapezoidal method. AUC was extrapolated to infinity (AUCINF) by dividing the last quantifiable concentration by the terminal disposition rate constant (λz). The λz was determined from at least 3 points on the slope of the terminal phase of the concentration-time profile. The t1/2 was determined by dividing 0.693 by λz. Cl/F was calculated by dividing the dose administered by AUCINF. V/F was calculated by dividing Cl/F by λz. If the percentage AUC extrapolated was greater than 20% or the r^2 of λz was less than 0.85, the AUCINF, Cl/F, t1/2, and V/F were not reported.

Hep3B tumor xenograft = experiment: Analysis of Hep3B xenograft tumors (immunoblot, RT-qPCR, ELISA, CD31 immunohistochemistry); type: in vivo, nude (nu/nu) mice
Source text: Figure 2 Effect of 32-134D on Hep3B tumor xenograft growth and vascularization. (A) Female nude mice received a subcutaneous injection of […] Hep3B cells. When tumors reached a volume of 150 mm^3 (designated treatment day 1), the mice were randomized to receive a daily intraperitoneal injection of 32-134D at a dose of 0 (blue), 20 (black), 40 (red), or 80 (green) mg/kg. Data are presented as mean tumor volume (± SEM; n = 4 each). **P < 0.01, ***P < 0.001 (ANOVA with Bonferroni’s post hoc test). (B) Gross pathology of tumors harvested from vehicle-treated (top panel) and 32-134D–treated (bottom panel) mice. (C) Nuclear extracts prepared from tumors were assayed by immunoblotting using antibodies against the indicated proteins. (D) Total RNA was isolated from tumor tissue and analyzed by RT-qPCR using primers specific for the indicated mRNAs and results (mean ± SEM, n = 4) were normalized to the mean value for tumors from vehicle-treated mice. (E) ELISA for the indicated proteins was performed using aliquots of tumor lysates (mean ± SEM; n = 3–4 tumors each). *P < 0.05 (Mann-Whitney test). (F) Formalin-fixed and paraffin-embedded tumor sections were analyzed by immunohistochemistry using an antibody against CD31 to identify vascular endothelial cells. Scale bar: 100 μm. The total CD31^+ vessel area per field was quantified using ImageJ (mean ± SEM; n = 4 tumors with 5 sections per tumor). *P < 0.05 (Student’s t test).
Intratumoral HIF-1β protein levels were not affected by treatment with 32-134D (Supplemental Figure 5E).
Female nude mice (NCI Athymic NCr-nu/nu) and male C57L mice were purchased from Charles River and The Jackson Laboratory, respectively. Hep3B (8 × 10^6) and Hepa1-6 (1 × 10^7) cells were resuspended in PBS and Matrigel (1:1, vol/vol) and implanted subcutaneously in 6- to 8-week-old mice, and tumor volume was calculated as V = abc × 0.52. For Hep3B tumor studies, once tumors reached 100 to 150 mm^3, mice were randomized into groups to receive daily intraperitoneal injection of either 32-134D or vehicle only (20% PEG-400, 10% Cremophor EL, 10% ethanol in PBS). For Hepa1-6 tumors, mice were randomized to receive treatment once tumors became palpable (tumor eradication experiment) or reached a volume of 200 mm^3 (harvesting of tumors for flow cytometry and analysis of RNA and protein expression). Tumors were harvested 4 hours after the last treatment (see Supplemental Table 6 for reagent sources).
Tumor samples were fixed in 10% formalin in phosphate buffer for 24 hours and placed in PBS the following day for paraffin embedding and sectioning. Anti-CD31 immunohistochemical staining, hematoxylin and eosin counterstaining, and whole-slide scanning were performed by NDB Bio (www.ndbbio.com).
Tumors were homogenized in ice-cold PBS supplemented with 1% Triton X-100 and PIs, centrifuged at 10,000g for 20 minutes to pellet debris, and the supernatant was collected for ELISA using commercial kits (Supplemental Table 6). Optical density was obtained at 450 nm (corrected for readings at 570 nm) using the VICTOR Nivo plate reader. Sample protein concentration was calculated by linear regression from a standard curve.

## Brc1ccc2c(-c3csc(-c4c[nH]c5c(Br)cccc45)n3)c[nH]c2c1 [Compound 32-134D]
[1]; read-out: apparent clearance (Cl/F)
  CL/F: 14.5 mL/min/kg
[1]; read-out: apparent volume of distribution (V/F)
  Vd/F: 6.1 L/kg
[1]; read-out: area under the curve extrapolated to infinity (AUCINF)
  AUC(0-inf): 96.7 µM·h
[1]; read-out: maximum plasma concentration (Cmax)
  Cmax: 20 µM
[1]; read-out: terminal half-life (t1/2) (converted)
  half-life: 4.1 h
Hep3B tumor xenograft; ELISA, P < 0.05
  VEGFA, EPO, SDF-1α and SCF protein in tumor lysates: significantly decreased expression
Hep3B tumor xenograft; RT-qPCR, P < 0.05
  tumor mRNA expression of ANGPTL4, EPO, PGF, CD73, PDL1, VEGFA, SDF-1, SCF: significant decrease
Hep3B tumor xenograft; immunoblot
  intratumoral HIF-1β protein levels: not affected
Hep3B tumor xenograft; immunoblot of tumor lysates
  intratumoral HIF-1α and HIF-2α protein expression: almost complete loss
Hep3B tumor xenograft; immunohistochemistry, P < 0.05
  CD31+ blood vessel area in tumors: significantly decreased blood vessel area
